# Earlier results as cited in patent publication US20230364244A1, “DENDRIMER COMPOSITIONS AND METHODS FOR DRUG DELIVERY TO INJURED KIDNEY” (Ashvattha Therapeutics, Inc., priority 2020, published 2023).
# Biological target: T1, PPAR-δ (Homo sapiens, UniProt Q03181)
# T1 construct: host or cells: human mesenchymal stem cells (endogenous receptor)
# T1 sequence (Q03181 1-441): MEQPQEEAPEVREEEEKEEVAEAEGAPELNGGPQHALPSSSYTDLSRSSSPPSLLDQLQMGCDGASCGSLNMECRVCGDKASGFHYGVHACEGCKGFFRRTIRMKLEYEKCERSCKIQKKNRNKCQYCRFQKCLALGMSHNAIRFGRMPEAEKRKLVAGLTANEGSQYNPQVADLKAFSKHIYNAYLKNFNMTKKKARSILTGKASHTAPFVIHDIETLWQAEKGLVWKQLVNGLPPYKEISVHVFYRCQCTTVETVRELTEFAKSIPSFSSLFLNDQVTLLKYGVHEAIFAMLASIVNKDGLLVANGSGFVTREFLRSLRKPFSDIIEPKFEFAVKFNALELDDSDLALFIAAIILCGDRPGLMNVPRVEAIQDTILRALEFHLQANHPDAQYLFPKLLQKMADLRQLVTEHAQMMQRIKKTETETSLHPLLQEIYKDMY
# Conditions: co-culture; inhibition of PPAR-δ in MSCs
structure (smiles),measurement,value
O=C(NCCS(=O)(=O)c1ccc(C(F)(F)F)cn1)c1ccc(Cl)cc1 [GSK3787],ability of human MSCs to limit proliferation of peripheral blood mononuclear cells,enhanced their ability to limit proliferation of peripheral blood mononuclear cells
